Assay results as given in ChEMBL document CHEMBL1828585, “Reverse fosmidomycin derivatives against the antimalarial drug target IspC (Dxr)” (J Med Chem, 2011).
Activity calls are given as the source filed them. The calls are words filed in the database; no cut-off is given here.

Columns and labels:
[1] = Inhibition of Plasmodium falciparum IspC
[2] = Inhibition of Escherichia coli IspC
[3] = test system: Plasmodium falciparum; test: Antimicrobial activity against chloroquine-resistant Plasmodium falciparum K1 infected in human erythrocytes assessed as inhibition of parasite replication; assay type: functional, organism-based
[4] = test system: MRC5; test: Cytotoxicity against human MRC5 cells; assay type: cell-based
[5] = test system: Plasmodium berghei; test: Antimalarial activity against Plasmodium berghei ANKA infected in Swiss mouse assessed as suppression of infected RBC at 40 mg/kg, ip bid for 5 days coadministered with ritonavir 10 mg/kg, po; assay type: functional
[6] = test system: Plasmodium berghei; test: Antimalarial activity against Plasmodium berghei ANKA infected in Swiss mouse assessed as survival at 40 mg/kg, ip bid for 5 days coadministered with ritonavir 10 mg/kg, po
[7] = test system: Plasmodium berghei; test: Antimalarial activity against Plasmodium berghei ANKA infected in Swiss mouse assessed as suppression of infected RBC at 10 mg/kg, ip qd for 5 days coadministered with ritonavir 10 mg/kg, po measured on day 4; assay type: functional
[8] = test system: Plasmodium berghei; test: Antimalarial activity against Plasmodium berghei ANKA infected in Swiss mouse assessed as survival at 10 mg/kg, ip qd for 5 days coadministered with ritonavir 10 mg/kg, po
[9] = Plasmodium falciparum, K1, read-out: IC50

## CCN(O)C(=O)CCC(c1ccccc1)P(=O)(O)O (centres undefined)
[1]; read-out: IC50
  IC50: 0.015 µM
[2]; read-out: IC50
  IC50: 15 µM
[3]; [9]
  IC50: 1.3 µM
[4]
  IC50: > 64 µM

## O=C(CCC(c1ccc(F)c(F)c1)P(=O)(O)O)NO (centres undefined)
[1]; read-out: IC50
  IC50: 0.003 µM
[2]; read-out: IC50
  IC50: 0.21 µM
[3]; [9]
  IC50: 0.38 µM
[4]
  IC50: > 64 µM
[5]
  Activity: 89%
[6]
  Survival: Active

## CCN(CC)CCCC(C)Nc1ccnc2cc(Cl)ccc12 (centres undefined) [CHLOROQUINE]
[7]
  Activity: 98%
[8]
  Survival: Active

## CN(O)C(=O)CCC(c1ccc(F)c(F)c1)P(=O)(O)O (centres undefined)
[1]; read-out: IC50
  IC50: 0.003 µM
[3]; [9]
  IC50: 0.29 µM
[4]
  IC50: > 64 µM
[5]
  Activity: 78%
[6]
  Survival: inactive

## CN(O)C(=O)CCC(c1cccc2ccccc12)P(=O)(O)O (centres undefined)
[1]; read-out: IC50
  IC50: 0.009 µM
[2]; read-out: IC50
  IC50: 3.8 µM
[3]; [9]
  IC50: 0.97 µM
[4]
  IC50: > 62 µM

## CN(O)C(=O)CCC(c1ccc(Cl)c(Cl)c1)P(=O)(O)O (centres undefined)
[1]; read-out: IC50
  IC50: 0.004 µM
[2]; read-out: IC50
  IC50: 0.29 µM
[3]; [9]
  IC50: 0.41 µM
[4]
  IC50: > 64 µM

## O=C(CCC(c1cccc2ccccc12)P(=O)(O)O)NO (centres undefined)
[1]; read-out: IC50
  IC50: 0.037 µM
[2]; read-out: IC50
  IC50: 7.4 µM
[3]; [9]
  IC50: 2.4 µM
[4]
  IC50: > 64 µM

## O=CN(O)CCCP(=O)(O)O [FOSMIDOMYCIN]
[1]; read-out: IC50
  IC50: 0.14 µM
[2]; read-out: IC50
  IC50: 0.22 µM
[3]; [9]
  IC50: 3.7 µM
[4]
  IC50: > 62 µM
[5]
  Activity: 92%
[6]
  Survival: Active

## CC(C)N(O)C(=O)CCC(c1ccccc1)P(=O)(O)O (centres undefined)
[1]
  IC50: Not Active
[2]
  IC50: Not Active
[3]
  IC50: Not Active
[4]
  IC50: > 64 µM
